Reference: ChEMBL document CHEMBL1201862, “PubChem BioAssay data set” (2004)
“And” between values parts separate entries of the source, which are not always exact repeats. Equal entries are not always repeated. The source made the active and inactive calls.

Legend:
[1] = target: T1, Corticotropin-releasing factor receptor 2/Corticotropin-releasing factor-binding protein (Homo sapiens, UniProt P24387+Q13324); assay: activators of CRF receptor 2 with binding protein – uHTS hits, confirmation (AID 602473); format: functional; conditions: read-out: EC50_Mean
T1 sequence (Q13324 whole entry): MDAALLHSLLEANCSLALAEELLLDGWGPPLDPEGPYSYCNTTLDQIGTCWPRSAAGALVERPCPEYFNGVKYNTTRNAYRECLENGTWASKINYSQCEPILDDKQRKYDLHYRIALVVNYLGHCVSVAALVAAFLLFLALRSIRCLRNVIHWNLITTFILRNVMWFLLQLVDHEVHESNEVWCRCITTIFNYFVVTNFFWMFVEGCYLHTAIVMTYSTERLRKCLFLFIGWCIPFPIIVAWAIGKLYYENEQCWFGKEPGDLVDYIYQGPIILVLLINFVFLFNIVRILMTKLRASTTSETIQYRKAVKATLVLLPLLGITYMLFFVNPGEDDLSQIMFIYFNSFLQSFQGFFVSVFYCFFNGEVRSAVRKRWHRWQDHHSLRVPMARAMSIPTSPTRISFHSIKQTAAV
T1 sequence (P24387 whole entry): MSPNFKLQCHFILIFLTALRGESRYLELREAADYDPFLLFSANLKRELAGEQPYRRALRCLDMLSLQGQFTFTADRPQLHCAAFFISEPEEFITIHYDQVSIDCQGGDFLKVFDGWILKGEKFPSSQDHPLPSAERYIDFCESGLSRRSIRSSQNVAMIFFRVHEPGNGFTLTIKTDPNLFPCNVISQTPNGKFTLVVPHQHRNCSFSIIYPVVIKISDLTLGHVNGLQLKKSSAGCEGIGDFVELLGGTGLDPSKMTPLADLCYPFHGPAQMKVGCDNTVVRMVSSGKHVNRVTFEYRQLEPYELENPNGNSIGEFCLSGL

[2] = Luminescence Cell-Based Dose Confirmation HTS to Identify Activators of 5'UTR Stem-Loop Driven Alpha-Synuclein mRNA Translation in H4 Neuroglioblastoma Cells. [Related pubchem assays: 1829 (Project Summary), 1814 (Primary HTS)]; format: functional
[3] = Luminescence Cell-Based Dose Response HTS to Identify Activators of Luciferase Translation or Activity in H4 […] Cells. [Related pubchem assays: 1829 (Project Summary), 1814 (Primary HTS)]; format: functional
[4] = system: H4; assay: Luminescence Cell-Based Dose Response HTS to Identify Activators of 5'UTR Stem-Loop Driven Prion Protein mRNA Translation in H4 Neuroglioblastoma Cells. [Related pubchem assays: 1829 (Project Summary), 1814 (Primary HTS)]; format: functional; conditions: Homo sapiens
[5] = Trypanosoma cruzi growth suppression in host cells – NIH3T3 host cells, beta-gal luminescence, confirmation (AID 2044); format: functional, cell-based;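 note: intracellular parasites grown in NIH/3T3 mouse fibroblasts as host cells; luminescent beta-galactosidase reporter signal from transgenic T. cruzi replicating inside host cells; inhibitors lower the luminescence signal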
[6] = NIH3T3 cell viability loss – ATP luminescence, mouse fibroblasts, counter-screen, dose response (AID 2010); format: functional, cell-based;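 note: cells exposed to compound for about 90 hours before reading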
[7] = target: Cytochrome P450 2C19 (Homo sapiens, UniProt P33261); assay: Cytochrome panel assay with activity outcomes. Panel member name: p450-cyp2c19 Compounds with AC50 equal or less than 10 uM are considered active; format: functional; conditions: read-out: AC50
[8] = target: Cytochrome P450 2C9 (Homo sapiens, UniProt P11712)
[9] = target: T2, Cytochrome P450 1A2 (Homo sapiens, UniProt P05177);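 note: PubChem cytochrome P450 panel assay, CYP1A2 panel member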
T2 sequence (P05177 whole entry): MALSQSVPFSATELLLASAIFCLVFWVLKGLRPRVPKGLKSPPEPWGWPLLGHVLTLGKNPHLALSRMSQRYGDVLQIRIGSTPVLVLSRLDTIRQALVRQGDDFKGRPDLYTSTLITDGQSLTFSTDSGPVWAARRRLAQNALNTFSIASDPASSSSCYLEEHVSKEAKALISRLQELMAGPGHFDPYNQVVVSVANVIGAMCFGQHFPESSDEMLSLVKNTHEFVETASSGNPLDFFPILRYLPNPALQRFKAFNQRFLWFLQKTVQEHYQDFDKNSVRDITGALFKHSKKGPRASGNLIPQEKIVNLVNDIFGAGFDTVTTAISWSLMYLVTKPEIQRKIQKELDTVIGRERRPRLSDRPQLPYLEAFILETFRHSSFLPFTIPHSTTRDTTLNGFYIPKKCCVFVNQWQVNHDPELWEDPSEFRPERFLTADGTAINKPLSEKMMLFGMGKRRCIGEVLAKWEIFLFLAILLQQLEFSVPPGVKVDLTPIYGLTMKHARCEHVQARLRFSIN

Cytochrome P450 2C9, sequence (P11712 whole entry): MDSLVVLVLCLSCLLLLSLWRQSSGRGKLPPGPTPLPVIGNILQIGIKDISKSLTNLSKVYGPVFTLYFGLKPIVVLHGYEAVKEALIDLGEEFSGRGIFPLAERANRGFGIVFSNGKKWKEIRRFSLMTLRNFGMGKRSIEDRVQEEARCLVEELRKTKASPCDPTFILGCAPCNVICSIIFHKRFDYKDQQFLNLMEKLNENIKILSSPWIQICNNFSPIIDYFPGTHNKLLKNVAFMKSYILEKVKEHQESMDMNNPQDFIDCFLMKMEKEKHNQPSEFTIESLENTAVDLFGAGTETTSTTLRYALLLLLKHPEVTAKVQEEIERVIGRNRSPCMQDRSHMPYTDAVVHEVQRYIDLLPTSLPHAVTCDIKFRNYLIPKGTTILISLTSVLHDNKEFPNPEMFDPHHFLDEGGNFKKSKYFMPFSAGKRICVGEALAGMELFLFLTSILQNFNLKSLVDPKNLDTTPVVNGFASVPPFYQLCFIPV
Cytochrome P450 2C19, sequence (P33261 whole entry): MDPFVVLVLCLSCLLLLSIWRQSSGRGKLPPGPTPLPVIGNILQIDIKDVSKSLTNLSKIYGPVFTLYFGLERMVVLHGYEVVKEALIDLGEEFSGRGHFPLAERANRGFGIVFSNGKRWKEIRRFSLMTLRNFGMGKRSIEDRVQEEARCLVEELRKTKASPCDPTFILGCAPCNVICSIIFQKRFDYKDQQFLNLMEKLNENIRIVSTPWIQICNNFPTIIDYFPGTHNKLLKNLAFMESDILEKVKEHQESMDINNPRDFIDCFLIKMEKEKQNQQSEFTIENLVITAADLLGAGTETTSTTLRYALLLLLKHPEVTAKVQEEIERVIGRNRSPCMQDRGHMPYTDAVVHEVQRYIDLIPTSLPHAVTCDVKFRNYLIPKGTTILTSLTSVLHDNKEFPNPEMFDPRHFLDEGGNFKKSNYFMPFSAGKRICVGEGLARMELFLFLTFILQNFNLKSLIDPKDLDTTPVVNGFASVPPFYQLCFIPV

For Cc1c(NC2=N/C(=N\C(=O)c3cccs3)c3ccccc32)c(=O)n(-c2ccccc2)n1C, the EC50 [1] was 5.98 µM (active).
In the case of COc1ccc(CN2CCn3ncc(C(=O)Nc4ccccc4)c3C2=O)cc1, the EC50 [2] is reported as 14.2 µM (active), the EC50 [3] is reported as 66.6 µM (active) and the EC50 [4] is reported as 18.9 µM (inconclusive).
With Cc1ccc(NC(=O)C2CCN(c3cnccn3)CC2)cc1 the EC50 [5] was 0.9 µM (active) and the EC50 [6] was > 60 µM (not active).
For O=C(Nc1ncc(S(=O)(=O)c2ccc([N+](=O)[O-])cc2)s1)c1ccccc1F, the EC50 [1] was 4.81 µM (active).
In the case of Cc1cc(NS(=O)(=O)c2ccc(NC(=O)c3cccc(OC(F)F)c3)cc2)nc(C)n1, the EC50 [1] is reported as > 53 µM (inactive).
In the case of Cc1cccc2c1OCC/C2=N\NC(=O)COc1ccccc1Cl, the AC50 [7] is reported as 0.708 µM (inconclusive).
With C=CC(=O)NC(C)(C)Cc1ccccc1 the AC50 [8] was 10 µM (inconclusive).
For Cn1cc(-c2nc3cnc(Oc4ccccc4)nc3n(C)c2=O)c2ccccc21, the AC50 [9] was 12.6 µM (inconclusive).
With COc1ccc(C(=O)NCCn2ccc3ccccc32)cc1 the EC50 [2] was 0.185 µM (active), the EC50 [3] was 0.132 µM (active) and the EC50 [4] was 0.488 µM (active).
With NC(=O)N/N=C\c1ccc([N+](=O)[O-])o1 the AC50 [9] was 12.6 µM (inconclusive).
For CCCc1cc2c(cc1NC(=O)c1ccccc1C)OCO2, the AC50 [8] was 0.0562 µM (inconclusive).
For COc1ccc(C2=CC(c3cccc(OC)c3)n3nnnc3N2)cc1 (configuration not stated), the EC50 [1] was > 53 µM (inactive).
In the case of COc1ccc(C(=O)NCC(=O)N2CCN(C(=O)c3ccco3)CC2)cc1, the EC50 [1] is reported as > 53 µM (inactive).
With CCOC(=O)CSc1nc(N2CCOCC2)c2c(c1C#N)CC(C)(C)N(C)C2 the EC50 [1] was > 53 µM (inactive).
With Fc1ccccc1OCCSc1[nH]cnc2ncnc1-2 the EC50 [2] was > 120 µM (not active), the EC50 [3] was 13 µM (active) and the EC50 [4] was 14.9 µM (active).
For COc1cc(=O)n(C)c2c(OC[C@@H](O)C(C)(C)O)cccc12, the AC50 [9] was 20 µM (inconclusive) and 12.6 µM (inconclusive).
With O=C(c1ccc2nc3ccc(Cl)cc3c(=O)n2c1)N1CCOCC1 the AC50 [9] was 14.1 µM (inconclusive).
For Cc1cccc(C)c1N1CCN(S(=O)(=O)N2CCCCC2)CC1, the EC50 [1] was 5.58 µM (active).
In the case of O=C(c1ccc(Cl)cc1)C1CCCN(Cc2cccn2-c2cccnc2)C1 (configuration not stated), the EC50 [5] is reported as 2.58 µM (active) and the EC50 [6] is reported as > 60 µM (not active).
In the case of Cc1nnc(O)n1-c1cccc(C(F)(F)F)c1, the AC50 [9] is reported as 5.62 µM (inconclusive).
In the case of COc1cccc2nc(O)c(-c3ccccc3)cc12, the EC50 [2] is reported as 9.22 µM (active) and the EC50 [3] is reported as 8.86 µM (active).
With CC1(C)CN=C(N(Cc2ccccc2)C(=O)Nc2ccccc2)S1 the EC50 [2] was 12.5 µM (active), the EC50 [3] was 13.1 µM (active) and the EC50 [4] was 18.8 µM (active).
For Cc1ccc(NCc2ccccc2)cc1 [N-BENZYL-4-METHYLANILINE], the EC50 [5] was 5.25 µM (active) and the EC50 [6] was > 60 µM (not active).
With CCOc1ccc(NC(=O)c2ccc(Br)o2)c([N+](=O)[O-])c1 the AC50 [9] was 3.55 µM (inconclusive).
For Cc1ccc(-c2ccc(CCC(=O)O)o2)cc1, the AC50 [9] was 25.1 µM (inconclusive).
In the case of CN(Cc1ccco1)c1ncnc2ccc(-c3ccc4c(c3)OCO4)cc12, the AC50 [8] is reported as 1.26 µM (inconclusive).
For CCN1C(=S)SC(=O)C1=C1C=C(C)N(CCO)C(C)=C1, the EC50 [2] was 0.102 µM (active).
In the case of CN1CCc2c(sc3c2C(=O)NC(c2cccc(OC(=O)c4cccs4)c2)N3)C1 (configuration not stated), the EC50 [2] is reported as 6.46 µM (active), the EC50 [3] is reported as 8.11 µM (active) and the EC50 [4] is reported as 40 µM (active).
